Converted amounts (≈) assume the structure as drawn.
Key:
E. coli ATCC 25922 = assay: MIC broth microdilution, AECO001; assay type: cell-based; settings: Escherichia coli; AECO001 is ATCC25922; Mueller Hinton Broth, 35 C, 20 hours
Description: (§1) Minimum inhibitory concentrations (MIC) were determined by reference Clinical and Laboratory Standards Institute (CLSI) broth microdilution methods per M7-A7 [2006]. Quality control ranges utilizing E. coli ATCC 25922, P. aeruginosa ATCC 27853 and S. aureus ATCC 29213, and interpretive criteria for comparator agents were as published in CLSI M100-S17 [2007]. Briefly, serial two-fold dilutions of the test compounds were prepared at 2× concentration in Mueller Hinton Broth. The compound dilutions were mixed in 96-well assay plates in a 1:1 ratio with bacterial inoculum. The inoculum was prepared by suspension of a colony from an agar plate that was prepared the previous day. Bacteria were suspended in sterile saline and added to each assay plate to obtain a final concentration of 5×10^5 CFU/mL. The plates were incubated at 35 C for 20 hours in ambient air.

P. aeruginosa ATCC 27853 = assay: MIC broth microdilution, APAE001; assay type: cell-based; settings: Pseudomonas aeruginosa; APAE001 is ATCC27853; Mueller Hinton Broth, 35 C, 20 hours
Description: as §1

`NC[C@@H]1O[C@H](O[C@H]2[C@@H](O)[C@H](O[C@@H]3[C@@H](O)[C@H](NC(=O)C4(O)CNC4)C[C@H](N)[C@H]3O[C@H]3O[C@H](CNCCO)[C@@H](O)C[C@H]3N)O[C@@H]2CO)[C@H](N)[C@@H](O)[C@@H]1O` [1/16] gave an MIC (E. coli ATCC 25922) of 1 to 16 µg/mL (≈ 1.35 to 21.6 µM) and an MIC (P. aeruginosa ATCC 27853) of at most 1 µg/mL.
Molecule `NC[C@@H]1O[C@H](O[C@H]2[C@@H](O)[C@H](O[C@@H]3[C@@H](O)[C@H](NC(=O)[C@]4(O)C[C@H](N)C4)C[C@H](N)[C@H]3O[C@H]3O[C@H](CNCCO)[C@@H](O)C[C@H]3N)O[C@@H]2CO)[C@H](N)[C@@H](O)[C@@H]1O` [2/9] has an MIC (E. coli ATCC 25922) of 1 to 16 µg/mL (≈ 1.32 to 21.2 µM) and an MIC (P. aeruginosa ATCC 27853) of at most 1 µg/mL.
`NC[C@@H](O)[C@H](O)C(=O)N[C@@H]1C[C@H](N)[C@@H](O[C@H]2O[C@H](CNCCO)[C@@H](O)C[C@H]2N)[C@H](O[C@@H]2O[C@H](CO)[C@@H](O[C@H]3O[C@@H](CN)[C@@H](O)[C@H](O)[C@H]3N)[C@H]2O)[C@H]1O` [3/3] gave an MIC (E. coli ATCC 25922) of 1 to 16 µg/mL (≈ 1.32 to 21.1 µM) and an MIC (P. aeruginosa ATCC 27853) of at most 1 µg/mL.
Molecule `NC[C@@H]1O[C@H](O[C@H]2[C@@H](O)[C@H](O[C@@H]3[C@@H](O)[C@H](NC(=O)[C@@H](O)[C@@H](O)CN)C[C@H](N)[C@H]3O[C@H]3O[C@H](CNCCO)[C@@H](O)C[C@H]3N)O[C@@H]2CO)[C@H](N)[C@@H](O)[C@@H]1O` [4/3] has an MIC (E. coli ATCC 25922) of 1 to 16 µg/mL (≈ 1.32 to 21.1 µM) and an MIC (P. aeruginosa ATCC 27853) of at most 1 µg/mL.
Work on `NC[C@@H](F)[C@H](O)C(=O)N[C@@H]1C[C@H](N)[C@@H](O[C@H]2O[C@H](CNCCO)[C@@H](O)C[C@H]2N)[C@H](O[C@@H]2O[C@H](CO)[C@@H](O[C@H]3O[C@@H](CN)[C@@H](O)[C@H](O)[C@H]3N)[C@H]2O)[C@H]1O` [5/3] yielded an MIC (E. coli ATCC 25922) of 1 to 16 µg/mL (≈ 1.31 to 21 µM) and an MIC (P. aeruginosa ATCC 27853) of at most 1 µg/mL.
`NC[C@@H]1O[C@H](O[C@H]2[C@@H](O)[C@H](O[C@@H]3[C@@H](O)[C@H](NC(=O)[C@@H](O)C(F)(F)CN)C[C@H](N)[C@H]3O[C@H]3O[C@H](CNCCO)[C@@H](O)C[C@H]3N)O[C@@H]2CO)[C@H](N)[C@@H](O)[C@@H]1O` [6/3] showed an MIC (E. coli ATCC 25922) of 1 to 16 µg/mL (≈ 1.28 to 20.5 µM) and an MIC (P. aeruginosa ATCC 27853) of 1 to 16 µg/mL (≈ 1.28 to 20.5 µM).

Reference: patent publication US20120283208A1, “ANTIBACTERIAL AMINOGLYCOSIDE ANALOGS” (Achaogen, Inc., priority 2009, published 2012)
